Test results taken from patent US6630449B2, “Method for reducing the effect of nicotine addiction and dependancy” (priority 2000, dated 2003).
Read-outs that look alike come from different tables or passages of the source.

Key:
[1] = system: smoker (craving for nicotine); assay: Treatment of smokers with corticotrophin injection to reduce craving for nicotine (case examples); assay type: in vivo, human
Text: Referring to the FIG. a suitable and preferred process for the treatment of smokers includes nutritional and relaxant supplements, corticotrophin administration, and counseling. On day one, the smoker comes into a clinic for orientation 10. At the time of the first office visit, a medical history is taken and a physical given 12 is taken by the physician, and a determination is made as to whether a given smoker is a satisfactory candidate for treatment 14. […] If the smoker is allowed to participate in the program, the physician will write a prescription of r the needed medications. Then, immediately before the smoker leaves the clinic, a pharmacist fills their prescription for and dispenses to the smoker their supply of nutrition supplements and mild relaxants 16. The next day, day two, the smoker has the first BMS 18. Then on day three the smoker comes back to the clinic and receives the first injection of corticotrophins 20 from the physician. This is the time and place the smoker gives up smoking 22. On day five the smoker participates in a second BMS 24. On day seven, the smoker returns to receive the second injection of corticotrophins 26 from the physician. On day fourteen the smoker, now presumably a former smoker, returns for the last BMS 28. […]

[2] = system: smokers (craving for nicotine); details: cited from earlier work; for time after first administration at which the effect starts to wear off / duration of nicotine craving relief: after injection

## Adrenocorticotrophin hormone
[1]; about 250 pounds, three packs a day, one injection of 160 units with counseling and nutritional supplements, no second injection
  smoking cessation outcome: ceased smoking permanently
[1]; comparative example, about 170 pounds, over one pack a day, one injection of 160 units, no appropriate counseling
  smoking cessation outcome: resumed smoking
[2]; listed as Corticotrophins
  time after first administration at which the effect starts to wear off / duration of nicotine craving relief: fifty and one hundred
[2]; listed as corticotrophins
  time after first administration at which the effect starts to wear off / duration of nicotine craving relief: About seventy two
[2]; given to smokers intramuscularly
  effect on craving for nicotine: dramatically reduce the craving for nicotine
[2]; one administration (Bourne treatment), after about thirty days
  patients who start smoking again: thirty to sixty
[2]; one administration (Bourne treatment)
  duration of reduced cravings for nicotine after one administration: thirty
